Reference: ChEMBL document CHEMBL4765419, “Design, synthesis and bioactivity evaluation of novel arylalkene-amide derivatives as dual-target antifungal inhibitors” (Eur J Med Chem, 2020)
Each block holds one compound with its values, some of them ahead of it. Calls of active or inactive are those of the source. The calls are words filed in the database; no cut-off is given here.

Columns and labels:
[1] = test system: Candida tropicalis; test: Antifungal activity against Candida tropicalis assessed as inhibition of microbial growth by two fold broth microdilution method; type: functional
[2] = test system: Candida albicans; test: Antifungal activity against Candida albicans assessed as inhibition of microbial growth by two fold broth microdilution method; type: functional
[3] = test system: Nakaseomyces glabratus; test: Antifungal activity against Candida glabrata assessed as inhibition of microbial growth by two fold broth microdilution method; type: functional
[4] = test system: Pichia kudriavzevii; test: Antifungal activity against Candida krusei assessed as inhibition of microbial growth by two fold broth microdilution method; type: functional
[5] = test system: Aspergillus fumigatus; test: Antifungal activity against Aspergillus fumigatus assessed as inhibition of microbial growth by two fold broth microdilution method; type: functional
[6] = test system: Candida albicans; test: In vivo antifungal activity against Candida albicans infected in mouse assessed as reduction in tissue infection injected via abdomen for 7 days by H and E staining based histological analysis; type: functional, organism-based; conditions: time 7.0 day
[7] = Toxicity in mouse infected with Candida albicans assessed as change in lung morphology administered via abdomen for 7 days by H and E staining based histological analysis; conditions: in vivo, ip, 168 h, time 7 day
[8] = test system: Candida albicans SC5314; test: Inhibition of SE/CYP51 in Candida albicans ATCC SC5314 assessed as ergosterol level at 4 ug/ml incubated for 16 hrs by LC/MS analysis (reference value: 79.43 %); set-up: scale not given: the % may be the effect or the level left; conditions: dose 4.0 µg/ml
[9] = Toxicity in mouse infected with Candida albicans assessed as change in liver morphology administered via abdomen for 7 days by H and E staining based histological analysis; conditions: in vivo, ip, 168 h, time 7 day
[10] = Toxicity in mouse infected with Candida albicans assessed as change in heart morphology administered via abdomen for 7 days by H and E staining based histological analysis; conditions: in vivo, ip, 168 h, time 7 day
[11] = test system: Candida albicans SC5314; test: Inhibition of SE/CYP51 in Candida albicans ATCC SC5314 assessed as unidentified sterol level at 4 ug/ml incubated for 16 hrs by LC/MS analysis (reference value: 7.03 %); set-up: scale not given: the % may be the effect or the level left; conditions: dose 4.0 µg/ml
[12] = Toxicity in mouse infected with Candida albicans assessed as change in body weight administered via abdomen for 7 days; conditions: in vivo, ip, 168 h, time 7 day
[13] = test system: Candida albicans; test: In vivo antifungal activity against Candida albicans infected in mouse assessed as uniform cell distribution injected via abdomen for 7 days by H and E staining based histological analysis; type: functional, organism-based; conditions: time 7.0 day
[14] = Stability in human plasma incubated for 120 mins; type: ADME, cell-free; conditions: read-out: Stabilty
[15] = test system: Candida albicans SC5314; test: Inhibition of SE/CYP51 in Candida albicans ATCC SC5314 assessed as lanosterol level at 4 ug/ml incubated for 16 hrs by LC/MS analysis (reference value: 6.62 %); set-up: scale not given: the % may be the effect or the level left; conditions: dose 4.0 µg/ml
[16] = test system: Candida albicans; test: In vivo antifungal activity against Candida albicans infected in mouse assessed as disappearance of cell nuclear aggregation injected via abdomen for 7 days by H and E staining based histological analysis; type: functional, organism-based; conditions: time 7.0 day
[17] = test system: Candida albicans; test: Antifungal activity against fluconazole-resistant Candida albicans CaR assessed as inhibition of microbial growth by two fold broth microdilution method; type: functional
[18] = Toxicity in mouse infected with Candida albicans assessed as change in spleen morphology administered via abdomen for 7 days by H and E staining based histological analysis; conditions: in vivo, ip, 168 h, time 7 day
[19] = test system: Candida albicans SC5314; test: Inhibition of SE/CYP51 in Candida albicans ATCC SC5314 assessed as eburicol level at 4 ug/ml incubated for 16 hrs by LC/MS analysis (reference value: 4.67 %); set-up: scale not given: the % may be the effect or the level left; conditions: dose 4.0 µg/ml
[20] = test system: Candida albicans SC5314; test: Inhibition of SE/CYP51 in Candida albicans ATCC SC5314 assessed as squalene level at 4 ug/ml incubated for 16 hrs by LC/MS analysis (reference value: 2.25 %); set-up: scale not given: the % may be the effect or the level left; conditions: dose 4.0 µg/ml
[21] = Toxicity in mouse infected with Candida albicans assessed as change in kidney morphology administered via abdomen for 7 days by H and E staining based histological analysis; conditions: in vivo, ip, 168 h, time 7 day
[22] = test system: Candida albicans; test: Antifungal activity against fluconazole-resistant Candida albicans 632 assessed as inhibition of microbial growth by two fold broth microdilution method; type: functional
[23] = test system: Candida albicans; test: Antifungal activity against fluconazole-resistant Candida albicans 904 assessed as inhibition of microbial growth by two fold broth microdilution method; type: functional
[24] = test system: Candida albicans; test: In vivo antifungal activity against Candida albicans infected in mouse assessed as disappearance of infected positions injected via abdomen for 7 days by H and E staining based histological analysis; type: functional, organism-based; conditions: time 7.0 day
[25] = test system: Candida albicans; test: Antifungal activity against fluconazole-resistant Candida albicans 901 assessed as inhibition of microbial growth by two fold broth microdilution method; type: functional
[26] = Hepatotoxicity in mouse infected with Candida albicans assessed as effect on alanine aminotransferase level in plasma administered via abdomen for 7 days (reference value: 102 +/-9.2 IU/L); type: toxicity; conditions: ip, 168 h, time 7 day
[27] = test system: Candida albicans; test: Antifungal activity against Candida albicans ATCC SC5314 assessed as decrease in fungal cell density by polarizing microscopy; type: functional, organism-based
[28] = Stability in human plasma incubated for 60 mins; type: ADME, cell-free; conditions: read-out: Stabilty
[29] = Renal toxicity in mouse infected with Candida albicans assessed as effect on blood urea nitrogen level administered via abdomen for 7 days (reference value: 6.7 +/-0.3 mmol/L); conditions: in vivo, ip, 168 h, time 7 day
[30] = Hepatotoxicity in mouse infected with Candida albicans assessed as aspartate aminotransferase level in plasma administered via abdomen for 7 days (reference value: 109.4 +/-4.8 IU/L); type: toxicity; conditions: ip, 168 h, time 7 day
[31] = test system: Candida albicans; test: Antifungal activity against fluconazole-resistant Candida albicans 17# assessed as inhibition of microbial growth by two fold broth microdilution method; type: functional
[32] = test system: Candida albicans; test: Antifungal activity against Candida albicans ATCC SC5314 assessed as disappearance of fungal cell boundaries at 4 ug/ml incubated for 72 hrs by TEM analysis; type: functional, organism-based; conditions: dose 4.0 µg/ml
[33] = test system: Candida albicans; test: Antifungal activity against Candida albicans ATCC SC5314 assessed as edema cavitation at 4 ug/ml incubated for 72 hrs by TEM analysis; type: functional, organism-based; conditions: dose 4.0 µg/ml
[34] = test system: Candida albicans; test: Antifungal activity against Candida albicans ATCC SC5314 assessed as nuclear membrane cleavage at 4 ug/ml incubated for 72 hrs by TEM analysis; type: functional, organism-based; conditions: dose 4.0 µg/ml
[35] = test system: Candida albicans; test: Antifungal activity against Candida albicans ATCC SC5314 assessed as cell lysis at 4 ug/ml […] by TEM analysis; type: functional, organism-based; conditions: dose 4.0 µg/ml
[36] = test system: Candida albicans; test: Antifungal activity against Candida albicans ATCC SC5314 assessed as vesicles formation at 4 ug/ml incubated for 72 hrs by TEM analysis; type: functional, organism-based; conditions: dose 4.0 µg/ml
[37] = test system: Candida albicans; test: Antifungal activity against Candida albicans ATCC SC5314 assessed as loss of cell permeability at 4 ug/ml incubated for 72 hrs by TEM analysis; type: functional, organism-based; conditions: dose 4.0 µg/ml
[38] = test system: Candida albicans; test: Antifungal activity against Candida albicans ATCC SC5314 assessed as leakage of endogenous substances at 4 ug/ml incubated for 72 hrs by TEM analysis; type: functional, organism-based; conditions: dose 4.0 µg/ml
[39] = test system: Candida albicans; test: Antifungal activity against Candida albicans ATCC SC5314 assessed as irregular cell structure at 4 ug/ml incubated for 72 hrs by TEM analysis; type: functional, organism-based; conditions: dose 4.0 µg/ml

- MIC [1]: 0.25 µg/mL
- MIC [2]: 0.25 µg/mL
- MIC [3]: 0.25 µg/mL
- MIC [4]: 0.5 µg/mL
- MIC [5]: 4 µg/mL
Compound: O=C(/C=C/c1cccc2ccccc12)NCC(=O)NCc1ccncc1

- MIC [1]: 1 µg/mL
- MIC [2]: 0.5 µg/mL
- MIC [3]: 0.5 µg/mL
- MIC [4]: 2 µg/mL
- MIC [5]: > 16 µg/mL
Compound: O=C(NCc1cccnc1)C(=O)N/N=C/c1ccc2c(c1)OCCO2

- MIC [1]: 0.5 µg/mL
- MIC [2]: 0.5 µg/mL
- MIC [3]: 0.25 µg/mL
- MIC [4]: 0.5 µg/mL
- MIC [5]: 8 µg/mL
Compound: O=C(/C=C/c1ccc2ccccc2c1)NC(Cn1ccnc1)C(=O)Nc1ccccc1 (stereo unspecified)

- MIC [1]: 0.5 µg/mL
- MIC [2]: 2 µg/mL
- MIC [3]: 0.5 µg/mL
- MIC [4]: 4 µg/mL
- MIC [5]: 8 µg/mL
Compound: O=C(/C=C/c1ccc2ccccc2c1)NC(Cn1ccnc1)C(=O)NCc1ccccc1 (stereo unspecified)

Compound: O=C(/C=C/c1cccc2ccccc12)NC(Cn1ccnc1)C(=O)Nc1ccccc1 (stereo unspecified)
- Activity [6]: Active
- MIC [1]: 0.25 µg/mL
- MIC [2]: 0.125 µg/mL
- Activity [7]: Non-Toxic
- Activity [8]: 10.7%
- Activity [9]: Non-Toxic
- Activity [10]: Non-Toxic
- Activity [11]: 5.46%
- Activity [12]: Non-Toxic
- Activity [13]: Active
- remaining at 2 h [14]: 84.1%
- MIC [3]: 0.125 µg/mL
- Activity [15]: 14.5%
- MIC [4]: 0.25 µg/mL
- Activity [16]: Active
- MIC [17]: 8 µg/mL
- Activity [18]: Non-Toxic
- MIC [5]: 4 µg/mL
- Activity [19]: 40.1%
- Activity [20]: 29.1%
- Activity [21]: Non-Toxic
- MIC [22]: 8 µg/mL
- MIC [23]: > 16 µg/mL
- Activity [24]: Active
- MIC [25]: 8 µg/mL
- Activity [26]: 105 IU/L
- Activity [27]: Active
- remaining at 1 h [28]: 89.7%
- Activity [29]: 6.9 mmol/L
- Activity [30]: 101.5 IU/L
- MIC [31]: 4 µg/mL

- MIC [1]: 1 µg/mL
- MIC [2]: 0.5 µg/mL
- MIC [3]: 1 µg/mL
- MIC [4]: 0.5 µg/mL
- MIC [5]: > 16 µg/mL
Compound: CN(CC(=O)NCc1cccnc1)C(=O)/C=C/c1ccc2ccccc2c1

- MIC [1]: 0.25 µg/mL
- MIC [2]: 0.125 µg/mL
- MIC [3]: 0.25 µg/mL
- MIC [4]: 0.5 µg/mL
- MIC [5]: 4 µg/mL
Compound: CN(CC(=O)NCc1ccncc1)C(=O)/C=C/c1cccc2ccccc12

- MIC [1]: 2 µg/mL
- MIC [2]: 2 µg/mL
- MIC [3]: 4 µg/mL
- MIC [4]: 4 µg/mL
- MIC [5]: > 16 µg/mL
Compound: O=C(/C=C/c1ccc2c(c1)OCCO2)NCC(=O)NCc1cccnc1

Compound: O=C(NCc1ccncc1)C(=O)N/N=C/c1cccc2ccccc12
- Activity [6]: Active
- MIC [1]: 0.125 µg/mL
- MIC [2]: 0.125 µg/mL
- Activity [7]: Non-Toxic
- Activity [8]: 8.27%
- Activity [9]: Non-Toxic
- Activity [10]: Non-Toxic
- Activity [11]: 4.71%
- Activity [12]: Non-Toxic
- Activity [13]: Active
- remaining at 2 h [14]: 86.5%
- MIC [3]: 0.25 µg/mL
- Activity [32]: Active
- Activity [15]: 11.3%
- MIC [4]: 0.5 µg/mL
- Activity [16]: Active
- MIC [17]: 4 µg/mL
- Activity [18]: Non-Toxic
- Activity [33]: Active
- MIC [5]: 2 µg/mL
- Activity [34]: Active
- Activity [19]: 32.8%
- Activity [20]: 42.9%
- Activity [21]: Non-Toxic
- MIC [22]: 8 µg/mL
- MIC [23]: 8 µg/mL
- Activity [24]: Active
- Activity [35]: Active
- MIC [25]: 4 µg/mL
- Activity [36]: Active
- Activity [37]: Active
- Activity [26]: 117 IU/L
- Activity [38]: Active
- Activity [27]: Active
- Activity [39]: Active
- remaining at 1 h [28]: 92.3%
- Activity [29]: 7.1 mmol/L
- Activity [30]: 112.7 IU/L
- MIC [31]: 4 µg/mL

- MIC [1]: 0.5 µg/mL
- MIC [2]: 0.5 µg/mL
- MIC [3]: 1 µg/mL
- MIC [4]: 1 µg/mL
- MIC [5]: > 16 µg/mL
Compound: CN(CC(=O)NCc1ccncc1)C(=O)/C=C/c1ccc2c(c1)OCCO2

- MIC [1]: 0.5 µg/mL
- MIC [2]: 0.5 µg/mL
- MIC [3]: 0.5 µg/mL
- MIC [4]: 0.25 µg/mL
- MIC [5]: > 16 µg/mL
Compound: CN(CC(=O)NCc1cccnc1)C(=O)/C=C/c1cccc2ccccc12

- MIC [1]: 0.5 µg/mL
- MIC [2]: 0.5 µg/mL
- MIC [3]: 1 µg/mL
- MIC [4]: 1 µg/mL
- MIC [5]: 8 µg/mL
Compound: O=C(/C=C/c1cccc2ccccc12)NCC(=O)NCc1cccnc1

Compound: CN(C/C=C/c1ccccc1)Cc1cccc2ccccc12 [NAFTIFINE]
- MIC [1]: 2 µg/mL
- MIC [2]: 0.5 µg/mL
- MIC [3]: 1 µg/mL
- MIC [4]: 0.5 µg/mL
- MIC [17]: > 16 µg/mL
- MIC [5]: 4 µg/mL
- MIC [22]: 8 µg/mL
- MIC [23]: 8 µg/mL
- MIC [25]: > 16 µg/mL
- Activity [27]: Active
- MIC [31]: 8 µg/mL
